Several values for one entry are separate records, joined by “and”; a condition that tells them apart may be missing. Equal entries are not always repeated. Entries after “also recorded” stand apart in the source; their conditions may differ.

One series has as its system SIVmac239. The experiment in a line: antiviral activity, SIV p27 ELISA in infected PBMC. The format is cell-based, rhesus macaques. The note with it: for reduction in viral load: treatment on Day 1 and Day 3, SIV p27 ELISA. Here is the method: PBMC cells were isolated from uninfected rhesus macaques and mitogen stimulated (PHA). The cells were then incubated with SIVmac239 for 2 hours, following which they were washed to remove any free virus. BC54 was then added to the infected cells. Fresh compound was added after 3 days. The antiviral activity was measured by SIV p27 ELISA on day 3 and 7, while the cell viability was determined on day 7 by MTT assay. The treatment of cells on Day 1 and Day 3, leads to a 30-fold and 100-fold reduction in viral load on Days 4 and 7, respectively.
(In general: An ELISA detects its analyte on a solid surface through an enzyme-linked reagent.)

Series [1] has as its system PDE4A, PDE4B, PDE4D, PDE7A, PDE7B, PDE8A, PDE3A. The experiment in a line: Summary of PDE inhibitor profile.
For the next series, the system named is Lymphoma cells. The experiment in a line: in vitro assay on lymphoma cells (24 hours, Hoechst stain, fsc/ssc). Type of series: cell-based. As to the method:
FIGS. 6A and 6B show the in vitro assay of BC54 action. Lymphoma cells are treated with the drug for 24 hours, then stained with Hoechst dye. The cells form a clearly defined population on the fsc/ssc dot plot. Vincristine treatment was used as a positive control. […] BC54 is referred to in the figure as S54.

Another series has as its system U937 cells. The series can be described thus: TNF alpha release by LPS-treated U937 cells. The format is cell-based.
A further series concerns PBMC cells. The series can be described thus: proliferation and viability of PBMC cells. The format is cell-based. The text has this: FIGS. 8A, 8B and 8C show the effect of BC54 on the proliferation and viability of PBMC cells.
In series [2] the test system is transplanted tumors (lymphomas). The series can be described thus: in vivo assay in mice with transplanted tumors (lymphomas). As to the method: FIGS. 7A and 7B show results of an in vivo assay of BC54 action.
A 7 day experiment was conducted to determine the effect of BC54 on mice having transplanted tumors (lymphomas). Drugs were given i.p. once a day in 60-100 ul of PBS. • 3 animals got just BC54—to assess toxicity • 3 animals injected with lymphoma and treated with BC54 • 3 animals—no treatment • 1 animal—CHOP 0.5 MTD
BC54 dose was 3 ul of 100 mM solution per mouse per injection. […]. […] After 7 days, the untreated mice were terminally ill. The group treated with BC54 looked better although they do show some clinical signs (hunched posture etc). […] Tumor load was evaluated in the spleen and in the peritoneal lymph nodes (FIG. 7).

A further series concerns CLL. The experiment in a line: CLL assay. The format is cell-based.
In series [3] the test system is PDE4A, PDE4B, PDE4D, PDE7A, PDE7B, PDE8A, PDE3A. The experiment in a line: Summary of PDE inhibitor profile. The settings on record: overall classification, Table 18 footnotes. Also noted: key: (1): Weak PDE7A inhibitor; (2): Strong PDE7A inhibitor; (3): Lillte/no activity under conditions used; (4): Weak PDE4A inhibitor.
The target of another series is PDE7A (Homo sapiens, UniProt Q13946). The series can be described thus: cAMP response in yeast strain expressing PDE7A. The note with it: PDE 7A; relative to BRL50481. The arrangement: targets used in the assays are full-length proteins (as opposed to simply the catalytic domain); expressed in transfected cells; host or cells: Schizosaccharomyces pombe, PDE gene integrated in place of cgs2. Type of series: cell-based.
Chain of PDE7A (Q13946 whole entry, the tested form may be a part): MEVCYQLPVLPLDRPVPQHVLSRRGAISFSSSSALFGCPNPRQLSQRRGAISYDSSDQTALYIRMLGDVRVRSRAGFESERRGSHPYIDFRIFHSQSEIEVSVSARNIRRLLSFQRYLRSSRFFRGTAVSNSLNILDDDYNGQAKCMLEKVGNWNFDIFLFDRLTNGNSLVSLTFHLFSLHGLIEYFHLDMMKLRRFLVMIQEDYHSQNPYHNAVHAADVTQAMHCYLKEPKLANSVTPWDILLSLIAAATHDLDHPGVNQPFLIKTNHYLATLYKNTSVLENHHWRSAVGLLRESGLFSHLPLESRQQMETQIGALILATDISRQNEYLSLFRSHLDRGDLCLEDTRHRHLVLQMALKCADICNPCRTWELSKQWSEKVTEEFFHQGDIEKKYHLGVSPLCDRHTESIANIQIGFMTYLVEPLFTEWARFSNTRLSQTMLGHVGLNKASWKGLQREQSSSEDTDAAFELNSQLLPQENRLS

In series [4] the target is PDE7B (Homo sapiens, UniProt Q9NP56). The experiment in a line: cAMP elevation in yeast PDE7B-expressing strain. Type of series: cell-based. Also noted: targets used in the assays are full-length proteins (as opposed to simply the catalytic domain); expressed in transfected cells; host or cells: Schizosaccharomyces pombe.
Chain of PDE7B (Homo sapiens, UniProt Q9NP56) (Q9NP56 whole entry, species assumed, the tested form may be a part): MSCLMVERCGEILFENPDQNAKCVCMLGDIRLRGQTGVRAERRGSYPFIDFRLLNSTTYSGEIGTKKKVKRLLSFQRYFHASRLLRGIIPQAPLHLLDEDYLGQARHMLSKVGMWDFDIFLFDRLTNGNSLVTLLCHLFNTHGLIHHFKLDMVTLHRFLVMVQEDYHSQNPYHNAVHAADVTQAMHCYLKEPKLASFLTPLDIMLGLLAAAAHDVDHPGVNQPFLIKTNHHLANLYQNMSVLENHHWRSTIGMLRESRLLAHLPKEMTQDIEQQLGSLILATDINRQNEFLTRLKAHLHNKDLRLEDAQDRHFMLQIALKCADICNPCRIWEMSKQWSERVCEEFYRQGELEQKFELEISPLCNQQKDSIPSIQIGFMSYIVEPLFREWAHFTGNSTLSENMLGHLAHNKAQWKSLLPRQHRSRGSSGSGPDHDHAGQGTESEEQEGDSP
In series [5] the target is T1, PDE7B (Rattus norvegicus, UniProt A0A0G2JXU0).
T1 construct: endogenous in cells; host or cells: rat pulmonary endothelial cells (extract)
T1 sequence (A0A0G2JXU0 1-446): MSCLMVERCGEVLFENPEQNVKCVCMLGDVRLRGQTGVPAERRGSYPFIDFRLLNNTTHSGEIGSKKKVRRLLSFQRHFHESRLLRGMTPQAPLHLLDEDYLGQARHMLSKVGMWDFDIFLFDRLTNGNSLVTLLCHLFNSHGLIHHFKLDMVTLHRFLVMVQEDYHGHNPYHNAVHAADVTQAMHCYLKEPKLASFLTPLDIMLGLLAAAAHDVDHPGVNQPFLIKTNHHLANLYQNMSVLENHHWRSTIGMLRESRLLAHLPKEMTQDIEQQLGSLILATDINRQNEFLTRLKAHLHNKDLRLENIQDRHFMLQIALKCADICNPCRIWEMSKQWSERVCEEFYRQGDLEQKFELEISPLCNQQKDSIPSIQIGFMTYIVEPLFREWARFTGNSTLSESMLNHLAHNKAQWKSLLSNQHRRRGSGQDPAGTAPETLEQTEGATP
The series can be described thus: in vitro enzyme assay of PDE7B activity in extracts from rat pulmonary endothelial cells. The format is biochemical. The text has this:
FIG. 13 is the in vitro enzyme assays of PDE7B activity in extracts made from rat pulmonary endothelial cells.

In a further series the test system is Jurkat cells. The experiment in a line: IL2 secretion by concanavalin A treated Jurkat cells. The format is cell-based, human. The note with it: ConA 10 μg/ml, prostaglandin E2, 24 hours. The text has this:
Jurkat cells, a human T cell lymphoblast-like cell line, increase expression of the cytokine IL2 in response to stimulation by concanavalin A (conA). This effect can be inhibited by elevated cAMP levels, although PDE4 inhibition alone appears to be insufficient to prevent IL2 induction (Kaminuma et al., Immunopharmacology, 1998 January; 38(3):247-52). However, the anti-inflammatory effect of PDE4 inhibitors can be detected using this assay by their ability to enhance the reduction of IL2 secretion by prostaglandin E2. IL2 levels are measured in Jurkat cells (5×10^5 cells/ml) stimulated by 10 μg/ml ConA in the presence of prostaglandin E2, with or without each test compound ([…]). After incubation at 37° C. for 24 hours, the resulting supernatant were collected and kept frozen at −70° C. until the time of assay. IL2 in the supernatants were measured by ELISA and the data is presented as a percentage of the PGE2 treated culture (FIG. 12).

Take `CCOC(=O)c1cc2c(=O)n3ccccc3nc2n(C2CCCCC2)/c1=N/C(C)=O` [BC54]: in the series on SIVmac239, the “efficacy in SIV cell culture, in words” value is “effective”. In addition, the “reduction in viral load” value with SIVmac239 (Day 4) was determined as 30 fold. Also, the “reduction in viral load” value in the series on SIVmac239 (Day 7) was found to be 100 fold. In series [1], the “PDE inhibitor profile, in words” value is “good PDE4 and PDE7 combination inhibitor; also recorded: affects PDE4D, but is weaker than on other 4 s and 7 s”; the “effect on PDE8A or PDE3A” value is given as “no effect”. The “apoptosis of lymphoma cells, in words” value with Lymphoma cells is listed as “induces apoptosis”. The “"live" population gone” value with Lymphoma cells (24 hours treatment) is reported as roughly 100%. In the series on U937 cells, the “TNF alpha reduction, conclusion in words” value was “good activity”. In the series on PBMC cells, the “toxicity to PBMC cells (proliferation and viability)” value is listed as “not found to be very toxic”. The toxicity in mice entry in series [2] (3 ul of 100 mM solution per mouse per injection, i.p. once a day) is given as “no major signs of toxicity”. Moreover, in series [2] (i.p. once a day, 7 days), the spleen tumor burden result is recorded as “No significant effect” and the “tumor load in lymph nodes” value is on record as “reduces the tumor load in lymph nodes”. Besides, the “clinical appearance after 7 days” value in series [2] (lymphoma-bearing mice) is “looked better”. Further, in series [2] (mouse, in vivo), the “efficacy in mouse DLBCL model, in words” value is reported as “effective”. In the series on CLL, the “activity in CLL assay, in words” value is listed as “good activity”.
For `COc1ccc2c(c1)C1(C)CCC(=O)CC1CC2` (single isomer, unassigned) [Compound 11], the “PDE inhibitor profile (Table 18)” value in series [3] was 11 (3). Further, the “cAMP Response (% BRL50481) 7A” value at PDE7A is on record as 89.00 % BRL50481.
A word on the Ki: it is a dissociation constant, usually derived from enzyme kinetics or from competition with a known ligand. Regarding `Cc1sc2ncnc(NC3CCCCC3)c2c1C` [BC28], in series [1], the “PDE inhibitor profile, in words” value is given as “potent PDE7B inhibitor”. For the same molecule, in the series with U937 cells, the “TNF alpha reduction, conclusion in words” value is on record as “TNFα synergy with PDE4 inhibitors, though not as strong as for BC30”. The “cAMP in yeast PDE7B-expressing strain, in words” value on PDE7B [4] is recorded as “induced cAMP elevation”. Further, the “KI lower than that of BRL50481” value at PDE7B [5] (PDE7B, rat pulmonary endothelial cell extracts) was “approximately 100 fold”. At PDE7B [5] (cell extracts, read-out: KI on PDE7 (PDE7B) from rat pulmonary endothelial cells), the inhibition constant Ki was ~200 nM and 200 nM. In the series on Jurkat cells, the “IL2 expression from Jurkat cells, in words” value is “strong reduction”.

The values are drawn from patent US20100227853A1, “INHIBITORS OF CYCLIC AMP PHOSPHODIESTERASES” (Trustees of Boston College, priority 2008, published 2010).
